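Cultured in 96-well plates, cells were exposed to test compound for 48 hours across five concentrations. GI50 is the concentration that inhibits growth by half.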 Active and inactive are the calls of the source. Cut-off read from the data, not from the text of the source: active = GI50 up to about 1.1 µM and inactive = higher. Residues, ends and D or L forms follow the SMILES beside them. *: point of attachment. X38 = O=C(c1ccc(-c2ccc(Cl)cc2Cl)o1)*
Experiments:
Experiment in all cases: NCI-60 cell line screen, 48 h
SW-620 = tested on: SW-620
NCI-H460 = tested on: NCI-H460
SK-MEL-2 = tested on: SK-MEL-2
SK-OV-3 = tested on: SK-OV-3
NCI-H226 = tested on: NCI-H226
A498 = tested on: A498
Hs-578T = tested on: Hs-578T
SK-MEL-5 = tested on: SK-MEL-5
IGROV-1 = tested on: IGROV-1
UACC-257 = tested on: UACC-257
KM12 = tested on: KM12
OVCAR-8 = tested on: OVCAR-8
CAKI-1 = tested on: CAKI-1
EKVX = tested on: EKVX
HOP-62 = tested on: HOP-62
LOX IMVI = tested on: LOX IMVI
U-251 = tested on: U-251
OVCAR-3 = tested on: OVCAR-3
OVCAR-5 = tested on: OVCAR-5
HCC 2998 = tested on: HCC 2998

Compound | GI50 (SW-620) | GI50 (NCI-H460) | GI50 (SK-MEL-2) | GI50 (SK-OV-3) | GI50 (NCI-H226) | GI50 (A498) | GI50 (Hs-578T) | GI50 (SK-MEL-5) | GI50 (IGROV-1) | GI50 (UACC-257) | GI50 (KM12) | GI50 (OVCAR-8) | GI50 (CAKI-1) | GI50 (EKVX) | GI50 (HOP-62) | GI50 (LOX IMVI) | GI50 (U-251) | GI50 (OVCAR-3) | GI50 (OVCAR-5) | GI50 (HCC 2998)
NCC1OC(n2cnc3c(=O)[nH]c(N)nc32)C(O)C1O (stereo unspecified) | > 100 µM (inactive) | > 100 µM (inactive) | > 100 µM (inactive) | > 100 µM (inactive) | > 100 µM (inactive) | > 100 µM (inactive) | > 100 µM (inactive) | > 100 µM (inactive) | > 100 µM (inactive) | > 100 µM (inactive) | > 100 µM (inactive) | > 100 µM (inactive) | > 100 µM (inactive) | > 100 µM (inactive) | > 100 µM (inactive) | 69.8 µM (inactive) | > 100 µM (inactive) | > 53.3 µM (inactive) | > 100 µM (inactive) | 
CN(C)Cc1cc(C(C)(C)C)cc(CN(C)C)c1O | 66.1 µM (inactive) | 36.4 µM (inactive) | > 100 µM (inactive) | > 100 µM (inactive) |  | > 100 µM (inactive) | > 100 µM (inactive) | > 100 µM (inactive) | > 100 µM (inactive) | > 100 µM (inactive) | 70.8 µM (inactive) | 98.4 µM (inactive) | > 100 µM (inactive) | 40.6 µM (inactive) | 68.5 µM (inactive) | 95.9 µM (inactive) | 98.6 µM (inactive) | 28.8 µM (inactive) | 57.3 µM (inactive) | 17.1 µM (inactive)
O=C(Nc1ccc(-c2cn3ccccc3n2)cc1)c1cc(Br)ccc1O | > 100 µM (inactive) | > 100 µM (inactive) | > 100 µM (inactive) | > 100 µM (inactive) | > 100 µM (inactive) | > 100 µM (inactive) | > 100 µM (inactive) | > 100 µM (inactive) | > 100 µM (inactive) | > 100 µM (inactive) | > 100 µM (inactive) | > 100 µM (inactive) | > 100 µM (inactive) | > 100 µM (inactive) | > 100 µM (inactive) | > 100 µM (inactive) | > 100 µM (inactive) | > 100 µM (inactive) | > 100 µM (inactive) | 
ClCCCc1ccccc1C1=NCCc2ccccc21 | > 100 µM (inactive) | 43.9 µM (inactive) | > 100 µM (inactive) | > 100 µM (inactive) | 55.1 µM (inactive) | > 100 µM (inactive) | 31.7 µM (inactive) | 9.73 µM (inactive) | 98.9 µM (inactive) | 43.1 µM (inactive) | 40.9 µM (inactive) | 24.9 µM (inactive) | > 100 µM (inactive) | 80.9 µM (inactive) | > 100 µM (inactive) |  | 25.8 µM (inactive) | > 100 µM (inactive) | > 100 µM (inactive) | 40.3 µM (inactive)
C/C=C\C(CC(=O)O)CN1CCC2=C(C1)C(S(=O)(=O)C(F)(F)F)c1ccccc12 (stereo unspecified) | > 100 µM (inactive) | > 100 µM (inactive) | > 100 µM (inactive) | > 100 µM (inactive) |  | > 100 µM (inactive) | > 100 µM (inactive) | > 100 µM (inactive) | > 100 µM (inactive) | > 100 µM (inactive) | > 100 µM (inactive) | > 100 µM (inactive) | > 100 µM (inactive) | > 100 µM (inactive) | > 100 µM (inactive) |  | > 100 µM (inactive) | > 100 µM (inactive) | > 100 µM (inactive) | > 100 µM (inactive)
CCOC(=O)N(Cc1cccs1)c1cc(OC)c(OC)c(OC)c1 | > 100 µM (inactive) | 51.1 µM (inactive) | 26.5 µM (inactive) |  | 86.3 µM (inactive) | > 100 µM (inactive) | 86.5 µM (inactive) | 41.7 µM (inactive) | 17 µM (inactive) | > 100 µM (inactive) | 47.5 µM (inactive) | 90.4 µM (inactive) | 56.5 µM (inactive) | > 100 µM (inactive) | > 100 µM (inactive) | 45.2 µM (inactive) | > 100 µM (inactive) | 53.8 µM (inactive) | > 100 µM (inactive) | > 100 µM (inactive)
Cc1cc(CC(O)(C(F)(F)F)C(F)(F)F)cc(CC(O)(C(F)(F)F)C(F)(F)F)n1 | > 100 µM (inactive) | 2.04 µM (inactive) | 2.44 µM (inactive) |  | 2.72 µM (inactive) | 2.76 µM (inactive) | 2.67 µM (inactive) | 1.72 µM (inactive) | 3.46 µM (inactive) | 2.89 µM (inactive) | 2.27 µM (inactive) | 3.48 µM (inactive) | > 100 µM (inactive) | 2.89 µM (inactive) | 3.33 µM (inactive) | 2.42 µM (inactive) | 3.3 µM (inactive) | 1.01 µM (active) | 6.79 µM (inactive) | 4.23 µM (inactive)
O=C1CCCC2=C1CC1=C(CCCC1=O)N2c1ccccc1 | > 100 µM (inactive) | > 100 µM (inactive) |  | > 100 µM (inactive) | > 100 µM (inactive) | > 100 µM (inactive) | > 100 µM (inactive) | > 100 µM (inactive) | > 100 µM (inactive) |  | > 100 µM (inactive) | > 100 µM (inactive) | > 100 µM (inactive) | > 100 µM (inactive) |  | > 100 µM (inactive) | > 100 µM (inactive) | > 100 µM (inactive) | > 100 µM (inactive) | > 100 µM (inactive)
N=C(c1cccs1)C1(N2CCCCC2)CCCCC1 | 16.6 µM (inactive) | 15.7 µM (inactive) | 16.6 µM (inactive) | 19.6 µM (inactive) |  | 17.7 µM (inactive) | 57.4 µM (inactive) |  | 22.3 µM (inactive) | 15.6 µM (inactive) | 17.6 µM (inactive) |  | 15.3 µM (inactive) | 20.9 µM (inactive) | 20.3 µM (inactive) | 28.2 µM (inactive) | 16.4 µM (inactive) | 15.3 µM (inactive) | 19.4 µM (inactive) | 14.1 µM (inactive)
COc1ccc(-c2nc(-c3ccc(OC)cc3)n(-c3ccccc3)n2)cc1 | > 100 µM (inactive) | > 100 µM (inactive) | > 100 µM (inactive) | > 100 µM (inactive) | > 100 µM (inactive) | 45.7 µM (inactive) | > 100 µM (inactive) | 54.1 µM (inactive) | > 100 µM (inactive) | > 100 µM (inactive) | 40.2 µM (inactive) | > 100 µM (inactive) | > 100 µM (inactive) | 56.4 µM (inactive) | > 100 µM (inactive) | 41.1 µM (inactive) | 78.9 µM (inactive) | 46.8 µM (inactive) | > 100 µM (inactive) | 
CCN(CC)c1nc(N(C)C)c2cc(OC)ccc2n1 | 24 µM (inactive) | 20 µM (inactive) | 36.6 µM (inactive) |  | 21.9 µM (inactive) | 32.6 µM (inactive) | 31.2 µM (inactive) | 17.4 µM (inactive) | 30.8 µM (inactive) | 24.7 µM (inactive) | 26.6 µM (inactive) | 26.2 µM (inactive) | 44.6 µM (inactive) | 25.1 µM (inactive) | 92.7 µM (inactive) | 26.8 µM (inactive) | 27.5 µM (inactive) | 35.6 µM (inactive) | 62.5 µM (inactive) | 18.5 µM (inactive)
CC(=O)Oc1ccccc1-c1cc2ccccc2oc1=O | > 100 µM (inactive) | > 100 µM (inactive) | > 100 µM (inactive) |  | 31 µM (inactive) | > 100 µM (inactive) | > 100 µM (inactive) |  |  | > 100 µM (inactive) | > 100 µM (inactive) | > 100 µM (inactive) |  | 63.5 µM (inactive) | > 100 µM (inactive) | > 100 µM (inactive) |  | 22.4 µM (inactive) | > 100 µM (inactive) | > 100 µM (inactive)
COC(=O)c1cc(C)ccc1C1CN=NC12Cc1cccc(C)c1C2=O (stereo unspecified) | 38.4 µM (inactive) | 26.2 µM (inactive) |  |  | 33.1 µM (inactive) | 47.6 µM (inactive) | 28.6 µM (inactive) | 18 µM (inactive) | 37.7 µM (inactive) | 30.9 µM (inactive) | 26.2 µM (inactive) | 33.1 µM (inactive) | 43.3 µM (inactive) | 23 µM (inactive) | 35.6 µM (inactive) | 16.6 µM (inactive) | 48.9 µM (inactive) | 36.1 µM (inactive) | 17.9 µM (inactive) | 37.9 µM (inactive)
COC(=O)C(CC(C)C)NC(=O)C(Cc1ccccc1)NC(=O)C1CCCN1C(=O)C(CO)NC(=O)c1ccc(-c2ccc(Cl)cc2Cl)o1 (stereo unspecified) (X38-SPFL-OMe; configuration not given here) | 30.7 µM (inactive) | 17.3 µM (inactive) | 16.9 µM (inactive) | 1.11 µM (active) | 19.1 µM (inactive) | 24.5 µM (inactive) | 35.5 µM (inactive) | 17.3 µM (inactive) |  | 20.2 µM (inactive) | 34 µM (inactive) | 36.4 µM (inactive) | 28.3 µM (inactive) |  |  | 21.8 µM (inactive) | 21.4 µM (inactive) |  | 21.9 µM (inactive) | 13.2 µM (inactive)
O=C1NC(=O)[C@@]2(CC[C@@H](O)C2)c2ccncc21 [SESBANINE] | > 100 µM (inactive) | > 100 µM (inactive) | > 100 µM (inactive) | > 100 µM (inactive) | > 100 µM (inactive) | > 100 µM (inactive) | > 100 µM (inactive) | > 100 µM (inactive) | > 100 µM (inactive) | > 100 µM (inactive) | > 100 µM (inactive) | > 100 µM (inactive) | > 100 µM (inactive) | > 100 µM (inactive) |  | > 100 µM (inactive) | > 100 µM (inactive) |  | > 100 µM (inactive) | > 100 µM (inactive)

Reference: ChEMBL document CHEMBL1201862, “PubChem BioAssay data set” (2004)
